Series [1] can be described thus: Metabolic stability in human hepatocytes assessed as intrinsic clearance measured per 10^6 cells. Format: ADME, cell-based, Hepatocyte. The following applies: read-out: CLH.
Series [2] addresses T1, Protein kinase C theta type (Homo sapiens, UniProt Q04759). The series is described as follows: Inhibition of PKC theta in TCR-stimulated human PBMC assessed as inhibition of IL-2 release. Format: cell-based.
Series [3] addresses T2, Protein kinase C alpha type (Homo sapiens, UniProt P17252). Briefly: Inhibition of PKC alpha (unknown origin) in presence of ATP at Km.
The nature of series [4]: Oral bioavailability in rat. The following applies: in vivo. The format is ADME, organism-based.
Series [5] is described as follows: Clearance in rat. Format: ADME. The settings on record: in vivo.
A short description of series [6]: Solubility of the compound. The format is physicochemical.
Series [7] can be described thus: Efflux ratio of apparent permeability across basolateral to apical side over apical to basolateral side in human Caco-2 cells. The format is ADME, cell-based. (Caco-2 monolayers are a common model of the intestinal barrier.)
The nature of series [8]: Volume of distribution at steady state in rat. Format: ADME. The settings on record: in vivo, read-out: Vdss.
A short description of series [9]: Apparent permeability of a compound in human Caco-2 cells. The format is ADME, cell-based.
The target of series [10] is T2, Protein kinase C alpha type. Briefly: Inhibition of PKC alpha (unknown origin) in presence of 1 mM ATP.
The target in series [11] is T1, Protein kinase C theta type. The series is described as follows: Inhibition of PKC theta (unknown origin) in presence of ATP at Km.
The target is the same in series [12]. Briefly: Inhibition of PKC theta (unknown origin) in presence of 1 mM ATP.
Series [13] in a line: Selectivity ratio of inhibition of FLT3 (unknown origin) to inhibition of PKC theta (unknown origin) at 1 mM ATP concentration.
The nature of series [14]: Selectivity ratio of inhibition of PI3K-C2beta (unknown origin) to inhibition of PKC theta (unknown origin) at 1 mM ATP concentration.
The nature of series [15]: Half life in rat. The format is ADME. The settings on record: in vivo.
Series [16] can be described thus: Selectivity ratio of inhibition of PKCbeta1 (unknown origin) to inhibition of PKC theta (unknown origin) at 1 mM ATP concentration.
The nature of series [17]: Selectivity ratio of inhibition of PKACalpha (unknown origin) to inhibition of PKC theta (unknown origin) at 1 mM ATP concentration.
Series [18] can be described thus: Selectivity ratio of inhibition of PKCdelta (unknown origin) to inhibition of PKC theta (unknown origin) at 1 mM ATP concentration.
Series [19] in a line: Selectivity ratio of inhibition of AURB (unknown origin) to inhibition of PKC theta (unknown origin) at 1 mM ATP concentration.
The nature of series [20]: Selectivity ratio of inhibition of GSK3beta (unknown origin) to inhibition of PKC theta (unknown origin) at 1 mM ATP concentration.
A short description of series [21]: Selectivity ratio of inhibition of TRKA (unknown origin) to inhibition of PKC theta (unknown origin) at 1 mM ATP concentration.
A short description of series [22]: Selectivity ratio of inhibition of MSK1 (unknown origin) to inhibition of PKC theta (unknown origin) at 1 mM ATP concentration.
Series [23] is described as follows: Selectivity ratio of inhibition of CLK1 (unknown origin) to inhibition of PKC theta (unknown origin) at 1 mM ATP concentration.
Series [24] can be described thus: Selectivity ratio of inhibition of HGK (unknown origin) to inhibition of PKC theta (unknown origin) at 1 mM ATP concentration.
Series [25] is described as follows: Selectivity ratio of inhibition of RSK3 (unknown origin) to inhibition of PKC theta (unknown origin) at 1 mM ATP concentration.
The nature of series [26]: Selectivity ratio of inhibition of PKCeta (unknown origin) to inhibition of PKC theta (unknown origin) at 1 mM ATP concentration.
The target in series [27] is Voltage-gated inwardly rectifying potassium channel KCNH2 (Homo sapiens, UniProt Q12809). Briefly: Inhibition of hERG. Format: toxicity. For orientation: hERG is a cardiac potassium channel; its block is linked to QT prolongation.

The structures appear in SMILES notation. ≈ marks a conversion by molar mass, not a printed value.

T1 sequence (Q04759 whole entry): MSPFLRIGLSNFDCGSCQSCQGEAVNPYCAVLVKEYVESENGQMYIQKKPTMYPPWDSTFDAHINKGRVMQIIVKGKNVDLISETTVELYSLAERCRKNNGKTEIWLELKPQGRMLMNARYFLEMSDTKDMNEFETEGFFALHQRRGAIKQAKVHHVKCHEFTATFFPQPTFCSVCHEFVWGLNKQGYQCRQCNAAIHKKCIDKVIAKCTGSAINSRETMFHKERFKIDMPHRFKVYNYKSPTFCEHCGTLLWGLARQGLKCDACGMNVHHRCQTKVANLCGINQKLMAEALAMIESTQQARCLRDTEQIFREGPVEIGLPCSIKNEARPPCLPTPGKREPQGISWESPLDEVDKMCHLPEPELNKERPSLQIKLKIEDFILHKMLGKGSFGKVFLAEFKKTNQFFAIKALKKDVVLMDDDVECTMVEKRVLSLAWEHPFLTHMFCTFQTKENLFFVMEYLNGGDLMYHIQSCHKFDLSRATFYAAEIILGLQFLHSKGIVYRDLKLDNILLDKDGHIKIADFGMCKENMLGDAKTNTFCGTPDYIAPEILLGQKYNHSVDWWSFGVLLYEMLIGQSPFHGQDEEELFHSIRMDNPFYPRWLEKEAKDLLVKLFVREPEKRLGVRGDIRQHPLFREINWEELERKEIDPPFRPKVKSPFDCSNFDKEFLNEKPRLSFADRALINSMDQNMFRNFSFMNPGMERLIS
Sequence of Voltage-gated inwardly rectifying potassium channel KCNH2 (Q12809 whole entry): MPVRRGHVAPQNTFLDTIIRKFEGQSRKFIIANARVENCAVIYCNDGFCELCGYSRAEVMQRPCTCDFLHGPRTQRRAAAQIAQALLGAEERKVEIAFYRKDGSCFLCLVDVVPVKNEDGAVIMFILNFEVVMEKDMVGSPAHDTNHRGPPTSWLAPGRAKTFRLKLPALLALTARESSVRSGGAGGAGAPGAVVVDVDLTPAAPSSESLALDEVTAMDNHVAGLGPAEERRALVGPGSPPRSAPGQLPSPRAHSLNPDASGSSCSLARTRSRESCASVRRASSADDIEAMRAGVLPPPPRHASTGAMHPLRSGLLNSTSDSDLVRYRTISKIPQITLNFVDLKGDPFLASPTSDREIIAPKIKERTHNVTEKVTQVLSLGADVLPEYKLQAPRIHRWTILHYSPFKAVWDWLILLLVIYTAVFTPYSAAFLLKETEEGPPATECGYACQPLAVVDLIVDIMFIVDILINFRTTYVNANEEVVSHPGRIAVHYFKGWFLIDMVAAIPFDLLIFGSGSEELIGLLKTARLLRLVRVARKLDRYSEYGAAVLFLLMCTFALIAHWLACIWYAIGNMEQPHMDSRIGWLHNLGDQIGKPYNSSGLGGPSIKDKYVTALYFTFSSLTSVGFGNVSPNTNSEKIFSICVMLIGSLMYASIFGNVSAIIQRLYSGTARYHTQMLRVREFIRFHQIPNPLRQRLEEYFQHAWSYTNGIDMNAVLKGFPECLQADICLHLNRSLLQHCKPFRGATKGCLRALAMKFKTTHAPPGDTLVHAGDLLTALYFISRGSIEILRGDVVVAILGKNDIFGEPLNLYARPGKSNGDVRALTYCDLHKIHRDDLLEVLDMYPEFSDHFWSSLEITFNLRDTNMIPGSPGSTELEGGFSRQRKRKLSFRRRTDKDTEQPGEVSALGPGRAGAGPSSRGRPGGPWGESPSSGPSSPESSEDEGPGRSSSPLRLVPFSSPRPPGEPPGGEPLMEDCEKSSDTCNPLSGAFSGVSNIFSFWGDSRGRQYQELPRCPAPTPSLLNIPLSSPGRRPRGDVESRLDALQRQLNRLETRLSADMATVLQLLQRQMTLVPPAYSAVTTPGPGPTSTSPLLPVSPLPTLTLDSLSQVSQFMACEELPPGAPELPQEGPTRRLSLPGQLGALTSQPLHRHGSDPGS

In general, IC50 refers to the midpoint of a concentration-inhibition curve. By bioavailability is commonly meant dose-corrected exposure relative to a reference, in per cent. A lower bioavailability goes with poor availability. By clearance is commonly meant the volume of plasma or blood freed of the substance per unit of time. High values mean a high capacity for elimination, low ones a low capacity for elimination. For orientation: solubility means the concentration that dissolves in the medium under given conditions. A high value points to much dissolved substance. A word on the efflux ratio: it is the permeability from basolateral to apical divided by that in the opposite direction, in the common usage. For orientation: Papp means a coefficient for how fast a substance crosses the barrier. In the case of `CC1CCC(C)n2ccc(=O)c3cc(F)c(nc32)-n2c(=O)[nH]c3nccc(c32)O1` (centres undefined), the hepatocyte CLint in series [1] is less than 4 µL/min/1e6 cells. Moreover, the IC50 was 0.017 µM in [2]; 0.049 µM in series [3]; 0.55 µM in [10]; less than 0.0005 µM in series [11]; less than 0.0005 µM in series [12]. The bioavailability in series [4] is 40%. Moreover, the clearance in series [5] was 41 mL/min/kg. In series [6], this compound gave a solubility of 271 µM (≈ 107 µg/mL). For the same compound, the efflux ratio in series [7] is 13. Further, the Vd in series [8] is 3.2 L/kg. Besides, the Papp in series [9] was 2.1 ×10⁻⁶ cm/s.

By half-life is commonly meant the time needed for the level to fall by half in the phase considered. High values mean slow loss, low ones fast loss. For `CC1CCCOc2nc(ccc2C(N)=O)-n2c(=O)[nH]c3nccc(c32)O1` (centres undefined), the Selectivity ratio in series [13] came out at 21; in [14] it was 133; in series [16], 147; in series [17], 501; in [18], 38; in series [19], 763. The Selectivity ratio stood at 66 in series [20]; 491 in series [21]; 322 in series [22]; 66 in series [23]; 51 in series [24]; 311 in series [25]. The Selectivity ratio in [26] is 43. Moreover, the IC50 in series [2] was found to be 0.029 µM; in [3], 0.77 µM; in [10], 6.5 µM; in [11] it was 0.0009 µM; in series [12], 0.012 µM. Moreover, the bioavailability in [4] worked out at 53%. Also, the half-life in [15] was 2.2 h. The compound also came in with a clearance in series [5] of 19.6 mL/min/kg. The compound further registered a solubility in series [6] of 300 µM (≈ 107 µg/mL). The efflux ratio in series [7] is 8. For the same compound, the Papp in series [9] came out at 3.9 ×10⁻⁶ cm/s.

Turning to `CC1CCN(C)c2c(F)cnc3cc(F)c(nc23)-n2c(=O)[nH]c3nccc(c32)O1` (centres undefined), the Selectivity ratio in series [13] was 174; in series [14], 332; in [16] it was 709; in series [17], 754; in series [18], 166; in [19], greater than 8330. The Selectivity ratio came out at 187 in [20]; 353 in series [21]; 576 in series [22]; 858 in [23]; 36 in series [24]; 649 in [25]. The Selectivity ratio in series [26] was found to be 62. For the same compound, in series [1], the hepatocyte CLint worked out at 4 µL/min/1e6 cells. In addition, the IC50 is 0.0091 µM in series [2]; 0.056 µM in series [3]; 0.934 µM in [10]; less than 0.0005 µM in series [11]; 0.0012 µM in [12]; 13 µM in series [27]. The bioavailability in series [4] was found to be 58%. The efflux ratio in [7] is 1. Further, the apparent permeability coefficient (Papp) in [9] came out at 18 ×10⁻⁶ cm/s.

For `CC1CCC(C)n2ccc(=O)c3ccc(nc32)-n2c(=O)[nH]c3nccc(c32)O1` (centres undefined), the Selectivity ratio in series [13] is 1310; in series [14], 3050; in series [16], 262; in series [17], greater than 6250; in series [18] it was 346; in series [19], 2850. The Selectivity ratio in series [20] is 4540; in series [21], 2200; in [22], 945; in [23] it was greater than 6250; in series [24] it was greater than 6250; in [25], 4910. Also, the Selectivity ratio in series [26] came to 482. In addition, in series [1], the hepatocyte CLint is less than 4 µL/min/1e6 cells. For the same compound, the IC50 was 0.026 µM in [2]; 0.14 µM in [3]; 0.79 µM in [10]; less than 0.0005 µM in series [11]; 0.0016 µM in series [12]. The compound further displayed a bioavailability in [4] of 20%. Besides, the clearance in [5] was determined as 36 mL/min/kg. Further, the concentration in solution in series [6] (solubility) came to 123 µM (≈ 46.4 µg/mL). Also, in [7], the efflux ratio was 8. In addition, the Vd in series [8] was determined as 2.7 L/kg. The Papp in series [9] worked out at 4 ×10⁻⁶ cm/s.

In the case of `CC1CC(C)Oc2ccnc3[nH]c(=O)n(c23)-c2cccc(n2)O1` (centres undefined), the Selectivity ratio in series [13] is 78; in series [14] it was greater than 370; in [16], 188; in series [17] it was greater than 370; in [18], 99; in [19], greater than 370. In addition, the Selectivity ratio is greater than 370 in series [20]; greater than 370 in [21]; 142 in series [22]; greater than 370 in series [23]; 40 in series [24]; greater than 370 in [25]. Moreover, the Selectivity ratio in series [26] came out at 43. For the same compound, in [1], the hepatocyte CLint was less than 4 µL/min/1e6 cells. Further, the half-maximal inhibitory concentration (IC50) in series [2] came to 0.058 µM; in series [3], 0.82 µM; in series [10], 6 µM; in series [11], 0.002 µM; in series [12] it was 0.027 µM. Moreover, the bioavailability in series [4] is 50%. Further, the clearance in [5] came to 12 mL/min/kg. In [6], this compound gave a solubility of 95 µM (≈ 29.7 µg/mL). Besides, in series [7], the efflux ratio was 0.6. Also, the Vd in series [8] was 1.8 L/kg. Besides, the Papp in series [9] was determined as 32 ×10⁻⁶ cm/s.

Values taken from ChEMBL document CHEMBL5625263, “Discovery of a novel series of selective macrocyclic PKCTheta inhibitors” (Bioorg Med Chem Lett, 2024).
